Where a SMILES comes first, the peptide text is derived from it. Where no end group is shown, it is not given here. [ ]: non-standard residue; d: D form.
Experiments:
[1] = system: primary human ovarian cancer cell lines; assay: Cell number (Wst-1) and apoptosis (Annexin V/PI FACS) of patient derived ovarian cancer cell lines; type: cell-based
Description: FIGS. 12A-12E show stimulation of Tsp-1 and its effects on ovarian cancer cell growth and survival. FIG. 12A is a western blot of Tsp-1 and β-actin in WI-38 lung fibroblasts that were untreated (−) or treated with native DWLP (SEQ ID NO: 6), L-amino acid, prosaposin peptide (WT), dWIP (SEQ ID NO: 5, lower case d and 1 indicate D-amino acids) prosaposin peptide (d1.3) or DwLp (SEQ ID NO: 7, lower case w and p indicate D-amino acids) prosaposin peptide (d2,4): […] is a western blot of Tsp-1 and β-actin in mouse lung tissue harvested from mice treated with metastatic prostate cancer cell conditioned media alone (−) or in combination with DWLP (SEQ ID NO: 6) prosaposin peptide (WT) or dWIP (SEQ ID NO: 5, lower case d and l indicate D-amino acids) prosaposin peptide (d1,3 peptide) at doses of 10 and 30 mg/kg/day for 3 days; FIG. 12C is a western blot of CD36 and β-actin in 8 patient derived ovarian cancer cell lines; FIG. 12D is a plot of cell number as measured by Wst-1 assay of a patient derived ovarian cancer cell line treated with 1 μM recombinant human Tsp-1 (rhTsp-1) for 24, 48 and 72 hours; and FIG. 12E is a FACS analysis of Annexin V and PI of a patient derived ovarian cancer cell line treated with 1 μM recombinant human Tsp-1 (rhTsp-1) for 48 hours.
In order to test the efficacy of the d-amino acid Psap peptide, a suitable tumor model that would represent a potential clinical application for the peptide, was determined. Given that Psap, and the peptide derived from it, stimulates Tsp-1 in bone marrow derived cells that are recruited to sites of metastasis, a specific type of cancer that expressed the receptor for Tsp-1 that mediates its pro-apoptotic activity, CD36 was sought to be identified (5). It has been reported that serous ovarian epithelial cells and human ovarian cancer cells express CD36 (11-13). […] Three of these cell lines were treated with recombinant human Tsp-1 for up to 72 hours and determined its effect on cell number and apoptosis.

[2] = system: DF14 cells; assay: PDX model of established ovarian cancer metastases, d-amino acid Psap peptide; type: in vivo; design: mice that died from adverse side effects / decrease of total body weight: dose or concentration left out as unconfirmed; settings: for body weight: 40 mg/kg QD, FIG. 16
Description: 75 percent of ovarian cancer patients already have disseminated disease at the time of first diagnosis (E. Lengyel, Ovarian cancer development and metastasis. Am J Pathol 177, 1053-1064 (2010)). For these patients inhibiting metastasis would have limited therapeutic benefit. Rather, these patients require a therapeutic agent that can regress or, at the very least, stabilize existing metastases. Whether the d-amino acid Psap peptide could have therapeutic efficacy in a model of established metastatic dissemination was investigated. 1×10^6 DF14 cells, expressing firefly luciferase, were injected into the peritoneal cavity of SCID mice to mimic the route of dissemination of human ovarian cancer. The growth of metastatic colonies in the mice in real time were monitored via relative luciferase intensity and when the average intensity of the luciferase signal was 0.5-1×10^8 RLU, treatment with vehicle (saline), the d-amino acid peptide (40 mg/kg QD), or cisplatin (4 mg/kg QOD) was started. […] However, during those 20 days half of the cisplatin treated mice died from adverse side effects of the drug as defined by total body weight, which decreased by 40% (FIG. 13C). Moreover, after 20 days the tumors in the group of cisplatin treated mice that survived began to grow, despite continued treatment with cisplatin, and all the remaining mice died within 10 days (FIG. 13A).
The livers and spleens of the Psap peptide treated mice were examined histologically (H&E) to determine whether there were any micrometastases.
Metastases in the peritoneal cavity recruited Cd11b^+/Gr1^+ bone marrow derived cells, analogous to lung metastases was investigated (3). […] The fluid was FACS sorted from these mice to assess the population of Cd11^+/Gr1^+ bone marrow derived cells. […] Based on these findings it was concluded that the Psap peptide was able to dramatically regress established metastases to the point where no detectable lesions could be found.

[3] = system: thrombospondin-1 (Tsp-1); assay: Tsp-1 activation in cultured cells by Western blot; type: cell-based
Experimental: Cells were cultured and contacted with 4 micrograms/mL or 10 micrograms/mL of each peptide and the level of thrombospondin-1 (Tsp-1) activation was measured by Western blot. Tsp-1 has been previously shown to be activated by Saposin A protein.

[4] = Stability in human plasma at 37° C., read out as Tsp-1 stimulation in WI-38 fibroblasts (ELISA); type: in vitro ADME; settings: 24 hours
Experimental: The cyclic peptide DWLPK (SEQ ID NO: 1) was also tested for stability in human plasma compared to the linear peptide dWIP (SEQ ID NO: 5). Each peptide was incubated in human plasma at 37 degrees Celsius, for 2, 4, 8, or 24 hours.
Cyclization also has the effect of increasing the stability of peptides by forcing them into a conformation that is not recognized by most naturally occurring proteases (9, 10, 14-18). The stability of the cyclic peptide to the linear d-amino acid peptide in human plasma was compared.

[5] = system: Tsp-1; assay: Tsp-1 expression in lungs of mice pretreated with PC3M-LN4 conditioned media (western blot); type: in vivo, C57BL6/J mice; settings: dose of 10 mg/kg, 3 days, LN4 CM
Experimental: The activity of the 1,3-d-amino acid Psap peptide and the native Psap peptide were tested in vivo. The peptides were systematically administered to C57BL6/J mice that were pretreated with conditioned media (CM) from PC3M-LN4 (LN4) cells, which previously mimicked the systemic properties of metastatic tumors by repressing the expression of Tsp-1 in the lungs of mice (3, 4). After 3 days of treatment with LN4 CM alone or in combination with two different doses (10 mg/kg/day and 30 mg/kg/day) of d- and 1-amino acid peptides (independently) protein pools were prepared from the harvested lungs of each treatment group. The level of Tsp-1 expression in the lungs of these mice were assessed by western blot analysis. It was observed that the 1,3-d-amino acid peptide stimulated Tsp-1 3-fold greater than the native peptide (FIG. 12B). […] Based on the observation that the in vitro activity of the two peptides was virtually identical, it was concluded that the difference in activity in vivo was due to a difference in stability.

## N.N.[Cl][Pt][Cl] [cisplatin]
[1]; FIG. 12E, compared with Tsp-1 treatment
  necrosis (low Anexin V and high PI staining): much greater percentage of ovarian cancer cells underwent necrosis
[2]; after day 20 of treatment
  time until all remaining mice died: ≤ 10 days
[2]; during first 20 days
  decrease of total body weight: 40%
  mice that died from adverse side effects: half
[2]; first 20 days of treatment, peptide 40 mg/kg QD, cisplatin 4 mg/kg QOD
  tumor volume as determined by luciferase intensity: able to regress tumor volume
[2]; surviving mice, cisplatin 4 mg/kg QOD
  tumor growth after 20 days despite continued treatment: began to grow

## CC(C)C[C@@H]1NC(=O)[C@H](Cc2c[nH]c3ccccc23)NC(=O)[C@@H](CC(=O)O)NC(=O)[C@H](CCCCN)NC(=O)[C@@H]2CCCN2C1=O [cyclic dWLPK] (cyclo(K[dD]WLP))
[3]; cyclic peptides, 4 micrograms/mL or 10 micrograms/mL, Western blot, FIG. 2
  effectiveness at increasing the level of Tsp-1: least effective

## CC(C)C[C@@H](NC(=O)[C@H](Cc1c[nH]c2ccccc12)NC(=O)[C@H](N)CC(=O)O)C(=O)N1CCC[C@H]1C(=O)O [linear dWIP, reference compound] (H-[dD]W[dL]P-OH; N-terminus and C-terminus assumed)
[2]; listed as Psap peptide
  body weight: no loss of body weight
[2]; listed as psap peptide
  body weight: no effect on body weight
[4]; 37 degrees Celsius, FIG. 3
  ability to activate Tsp-1 after incubation in human plasma: significantly less activity
[4]; 37° C., ELISA
  Tsp-1 stimulation after incubation in human plasma: no longer able to stimulate Tsp-1

## RhTsp-1: recombinant human Tsp-1 (thrombospondin-1)
[1]; 1 μM, 48 hours, FIG. 12E
  apoptotic cells (Anexin V positivity) by FACS: 30-60%
[1]; three cell lines, up to 72 hours, 1 μM, FIG. 12D
  decrease in total cell number, of the original number of cells plated: up to 50%

## linear DWGPK: linear version of peptide DWGPK (SEQ ID NO: 2) (not fully specified) [reference compound]
[3]; similar study with linear versions
  effectiveness at increasing Tsp-1, linear versions of the peptides: more effective than linear DWLPK

## native peptide: native DWLP (SEQ ID NO: 6), L-amino acid, prosaposin peptide (WT)
[5]
  Tsp-1 stimulation in lungs: did not significantly stimulate Tsp-1

— patent publication US11654178B2, “Cyclic prosaposin peptides and uses thereof” (CHILDREN'S MEDICAL CENTER CORPORATION, priority 2014, dated 2023)
